The values below come from patent EP0635494A1, “2-(Imidazol-1-yl)2-benzylethylidene-aminooxyalkyl-hydroxamic acid derivatives” (PHARMACIA S.p.A., priority 1993, dated 1995).

Experiment [1] concerns the target T1, TxA₂ Synthase (Rattus norvegicus, UniProt P49430).
T1 construct: Blood was withdrawn from the abdominal aorta of the animals under light ether anesthesia; from tissue; host or cells: rat whole blood (clotting, serum TxB₂ by RIA)
T1 sequence (P49430 1-533): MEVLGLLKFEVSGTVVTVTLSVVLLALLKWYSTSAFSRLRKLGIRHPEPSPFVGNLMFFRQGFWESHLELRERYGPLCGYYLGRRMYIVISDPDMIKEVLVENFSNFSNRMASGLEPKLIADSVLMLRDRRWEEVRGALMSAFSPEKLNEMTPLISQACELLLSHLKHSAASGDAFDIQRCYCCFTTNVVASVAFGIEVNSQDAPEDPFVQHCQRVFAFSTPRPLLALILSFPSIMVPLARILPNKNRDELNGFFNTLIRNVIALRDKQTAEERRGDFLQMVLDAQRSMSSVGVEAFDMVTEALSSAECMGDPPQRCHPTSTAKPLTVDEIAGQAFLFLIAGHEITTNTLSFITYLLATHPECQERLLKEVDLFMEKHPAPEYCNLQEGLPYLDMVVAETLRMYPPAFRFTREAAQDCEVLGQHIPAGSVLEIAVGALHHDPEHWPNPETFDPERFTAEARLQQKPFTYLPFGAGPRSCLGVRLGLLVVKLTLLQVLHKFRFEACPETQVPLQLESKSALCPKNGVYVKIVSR
The experiment in a line: In vitro effects on TxB₂ production in rat whole blood during clotting (TxA₂ synthesis, RIA). The experiment is classed as cell-based. The conditions noted are these: result in words, compared with reference compound Dazoxiben. As for the experimental part: The compounds of formula (I) were for example tested for their ability to inhibit TxA₂ Synthase activity (as reflected by TxB₂ generated in whole blood during clotting or in isolated glomeruli) in vitro in the rat. The in vitro experiments were carried out as follows: The effect of the compounds on TxA₂ synthesis was evaluated in serum.
Blood was withdrawn from the abdominal aorta of the animals under light ether anesthesia.
Samples were then allowed to clot for 1 h at 37°C, centrifuged at 3000 rpm for 10 min, serum collected and stored at -20°C until assayed. TxB₂ levels were determined by RIA according to previously described procedures [Patrono et al. - Thromb.

Another experiment addresses T2, TxA₂ receptor (Homo sapiens, UniProt P21731).
T2 construct: endogenous in cells; host or cells: washed human platelets from healthy volunteers
T2 sequence (P21731 1-343): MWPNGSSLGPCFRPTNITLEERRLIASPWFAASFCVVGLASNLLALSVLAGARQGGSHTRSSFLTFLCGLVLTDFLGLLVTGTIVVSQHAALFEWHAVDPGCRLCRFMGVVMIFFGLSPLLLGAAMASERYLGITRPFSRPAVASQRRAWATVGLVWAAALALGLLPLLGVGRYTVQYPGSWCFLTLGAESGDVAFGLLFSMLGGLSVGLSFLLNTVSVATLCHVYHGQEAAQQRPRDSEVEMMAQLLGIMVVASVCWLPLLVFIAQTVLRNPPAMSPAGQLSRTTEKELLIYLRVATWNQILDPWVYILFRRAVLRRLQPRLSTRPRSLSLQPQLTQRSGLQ
Kind of experiment: [³H]-SQ 29,548 binding displacement in washed human platelets (TxA₂ antagonism). The conditions noted are these: result in words, compared with Sulotroban (BM 13177).

For experiment [2], the target named is T1, TxA₂ Synthase. The conditions noted are these: statement on the known compound, no data shown; cited from earlier work.

Method for TxA₂ receptor: The experiments were carried out as follows: Blood from healthy volunteers of both sexes who had not taken any medication for at least 10 days was collected into one-tenth volume of acid citrate dextrose containing indomethacin (28 µM). Platelet rich plasma (PRP), obtained by centrifugation of the blood at 200 x g for 20 min, was washed twice (1000 x g for 10 min). The platelets were then resuspended in Tyrode-Hepes buffer (pH 7.4) to a final concentration of 5-10x10⁻⁸ cells/ml and incubated for 0-60 min at 25°C with [³H]-SQ 29,548 (5 nM). For displacement experiments various concentrations (10⁻⁹ -10⁻⁴M) of competing ligands were added and incubated for 30 min at 25°C.
Non-specific binding was determined in the presence of 50 µM U46619 and was approximately 5% of total binding of [³H]-SQ 29,548. After incubation, 4 ml of ice-cold TRIS-HCl buffer (10 mM, pH 7.4) was added to each tube and the reaction mixture was immediately filtered by suction through a Whatman GE/C glass filter disc which was washed 2 times with ice-cold TRIS-HCl (4 ml) and counted for radioactivity by a Packard-β-counter.
The binding data were analyzed by computerized non-linear curve fitting using the Ligand program and expressed as IC₅₀.

For `Cc1ccc(CC(/C(=N/OCCCCC(=O)O)C2CCCCC2)n2ccnc2)cc1` (racemic) [FCE 27818, (±)-(E)-5-[2-(4-methylbenzyl)-2-(imidazol-1-yl)-1-cyclohexylethylidene]aminooxypentanoic acid], at TxA₂ Synthase [1], the “inhibitory activity on TxA₂ synthesis” value is “marked inhibitory activity on TxA₂ synthesis significantly more potent than that of reference compound Dazoxiben”. The “affinity for the receptor” value at TxA₂ receptor is listed as “good affinity for the receptor which is better than that shown by the known compound Sulotroban (BM 13177)”. As for `O=C(O)COc1ccc(CCNS(=O)(=O)c2ccccc2)cc1` [BM 13177, Sulotroban], the “TxA₂ synthase inhibitory activity” value on TxA₂ Synthase [2] is recorded as “devoid of TxA₂ synthase inhibitory activity”.

For the compound “(±)-(E)-5-[2-benzyl-2-(imidazol-1-yl)-1-cyclohexylethylidene]-aminooxybutanohydroxamic acid [FCE 27790]”, the “inhibitory activity on TxA₂ synthesis” value against TxA₂ Synthase [1] is given as “marked inhibitory activity on TxA₂ synthesis significantly more potent than that of reference compound Dazoxiben”. In addition, at TxA₂ receptor, the “affinity for the receptor” value is “good affinity for the receptor which is better than that shown by the known compound Sulotroban (BM 13177)”.
